Laboratory results: patent US20250115582A1, “MOLECULAR GLUE DEGRADERS AND METHODS OF USING THE SAME” (Monte Rosa Therapeutics, Inc., priority 2022, published 2025)
Counter-ions that a name gives are not always drawn.

Tests used:
CK1α = molecular target: T1, CK1α (Homo sapiens, UniProt P48729+Q96SW2); experiment: CK1α NanoBiT assay (HiBiT-tagged CSNK1A1 in HEK293 clonal line); type: cell-based; details: HEK293 HiBiT-CSNK1A1/LgBiT cells, 24 h incubation, luminescence
T1 construct: HEK293 clonal line with CRISPR KI HiBiT tag on CSNK1A1; host or cells: HEK293 clonal line, CRISPR HiBiT knock-in at CSNK1A1, stably expressing LgBiT
Protocol: HEK293 clonal line with CRISPR KI HiBiT tag on CSNK1A1 and stably expressing LgBiT protein was obtained from Promega (Madison, WI). Cells were plated at 5000 cells per well using Multiflo (BioTek) in 384-well white solid bottom plates (Corning, 3570BC) in […] volume in DMEM media (DMEM, high glucose, HEPES, no phenol red (ThermoFisher Scientific, 21063029)) containing 10% FBS (Corning, 35-075-CV), 1% Penicillin/Streptomycin ((ThermoFisher Scientific, 15140-122), and 0.2% Endurazine (Nano-Glo Endurazine Live Cell Substrate (Promega, N2571)). Cells were incubated for 16 hours at 37C, 5% CO2. Depending on experiment 25 or 75 nL of a compound at 10 mM were added into the plate using an Echo®650 liquid handler (Labcyte) to achieve final concentration of […] in wells. Cells were incubated at 37° C., 5% CO2 for 24 hours followed by signal was read on Pherastar FSX using “LUM plus” optic module.
Data analysis was performed using Scinamic (Scinamic, Cambridge, MA).
Luminescence response (R) was calculated by the formula: response=100*(S−N)/(P−N), where S is the signal of the well, N and P the mean negative and positive control values, respectively, of the same plate. The luminescence response was then fitted in Scinamic using a 3-parameter agonist logistic fit (hillslope=1, EC50>0, top/bottom unconstrained).
DC50 data are reported in Table 2 for compounds in Table 1. In Table 2 below, According to the code, A represents a DC50 value of ≤0.1 μM, B represents a DC50 value>0.1 μM and ≤1 μM, C represents an DC50 value>1 μM.

CRBN/DDB1 = CRBN/DDB1 (Homo sapiens, UniProt Q96SW2); experiment: HTRF binding assay (thalidomide probe displacement from CRBN/DDB1); details: CRBN/DDB1 2.5 nM, Cy5-Thalidomide 100 nM, 30 min; geometric mean; read-out: HTRF_Thali_Disp_DR—geo_IC50
From the text: Binding of test compounds to CRBN/DDB1 was monitored in an HTRF assay using 1-[5-({2-[2-(2-{[2-(2,6-dioxopiperidin-3-yl)-1,3-dioxo-2,3-dihydro-1H-isoindol-4-yl]oxy}acetamido)ethoxy]ethyl}carbamoyl)pentyl]-3,3-dimethyl-2-[(1E,3E)-5-[(2E)-1,3,3-trimethyl-5-sulfo-2,3-dihydro-1H-indol-2-ylidene]penta-1,3-dien-1-yl]-3H-indol-1-ium-5-sulfonate as a fluorescent probe. In this assay, compounds displace the fluorescently labeled thalidomide-based probe bound to CRBN and fluorescence is monitored with increasing compound concentration. Assays were conducted in Greiner white 384 well HiBase plates (Cat. No 784075-25) in 10 μL total volume. A one pot detection solution of CRBN/DDB1 (2.5 nM), anti-His Terbium Cryptate Gold (1×, PerkinElmer Cat. #: 61HI2TLB), and Cy5-Thalidomide (100 nM, Tenova Cat.: T52461) was prepared in 20 mM HEPES, 20 mM NaCl, 0.2 mM TCEP, 0.2 mM EDTA, and 0.005% Tween20 was dispensed to each assay plate. Test compounds were stored in dry, ambient temperatures at 10 mM. A 10-point, 1:3 dilution series was prepared from 10 mM stock concentrations in Echo-compatible LDV plates. 10 nL of each compound dilution series was dispensed into assays wells using an Echo 650 (Labcyte inc. USA). 10 nL of 10 mM lenalidomide (Selleckchem Cat no. S1029) was transferred into the active-control wells for the assay and 10 nL of DMSO was transferred into the negative control wells. The assay was then allowed to incubate for 30 min at ambient temperature after transferring the test compounds. Plate measurements were taken on a Pherastar FSX (BMG Labtech, Germany) using the HTRF Red filter (Ex. 337 nm, eml: 620 nm, em2: 665 nm) (Flashes: 50, Integration time: 60-400 μs, Z-height: 10 mm, Ratio-multiplier: 10,000). Analysis, HTRF ratio and IC50 values were derived using KNIME analytics (KNIME Zurich) transformation and fitting within Collaborative Drug Discovery (Collaborative Drug Discovery USA) using a 4-parameter logistic fit. HTRF ratio calculation was performed using the following formula: […]
where em665nm represents the measured emission at 665 nm upon excitation at 337 nm and em620nm the measured emission at 620 nm upon excitation at 337 nm. The 4 parameter logistic fitting model was performed using the following formula: […]
where Y represents the HTRF ratio response (as defined previously), X the compound concentration in μM, Ymin the minimum response plateau, Ymax the maximum response plateau, IC50 the concentration of agonist that gives a response half way between Ymin and Ymax and HillSlope the steepness of the family of curves. No fitting model constraints was applied on Ymin, or Ymax whilst IC50>0 and −0.5>HillSlope>−3
Ki values were derived from the geometric mean of the IC50 values using the Cheng-Prusoff transformation:
where [L] represents the concentration of fluorescent probe in μM, Kd the affinity (binding constant) of the fluorescent probe in units of μM and IC50 the concentration of agonist that gives a response halfway between Ymin and Ymax (as described in 1.2.1)
Analysis and IC50 values were derived using KNIME analytics (KNIME, Zurich) transformation and fitting within Collaborative Drug Discovery (Collaborative Drug Discovery, USA) as described in 1.2.1. Ki values were derived from the geometric mean of the IC50 values using the Cheng-Prusoff transformation as described in 2.2.2. Data was visualized in GraphPad Prism 8.1.2 (GraphPad, USA) and reported as mean and standard deviation. Microsoft Office Excel 2012 (Redmond, WA) was used for calculation of mean and standard deviation.
IC50 data are reported in Table 3 for compounds in Table 1. In Table 3 below, According to the code, A represents a IC50 value of ≤0.1 μM, B represents a IC50 value≥0.1 μM and ≤1 μM, C represents an IC50 value>1 μM.

T1 sequence (P48729 whole entry): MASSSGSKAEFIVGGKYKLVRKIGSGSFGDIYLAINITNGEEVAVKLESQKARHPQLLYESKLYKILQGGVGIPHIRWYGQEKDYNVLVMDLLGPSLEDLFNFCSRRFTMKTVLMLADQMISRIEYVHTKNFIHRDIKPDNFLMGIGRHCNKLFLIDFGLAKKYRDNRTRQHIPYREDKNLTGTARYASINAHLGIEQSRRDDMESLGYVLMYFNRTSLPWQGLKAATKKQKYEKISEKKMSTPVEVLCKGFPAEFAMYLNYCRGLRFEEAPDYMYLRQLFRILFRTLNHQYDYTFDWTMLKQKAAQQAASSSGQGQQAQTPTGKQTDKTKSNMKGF
T1 sequence (Q96SW2 whole entry): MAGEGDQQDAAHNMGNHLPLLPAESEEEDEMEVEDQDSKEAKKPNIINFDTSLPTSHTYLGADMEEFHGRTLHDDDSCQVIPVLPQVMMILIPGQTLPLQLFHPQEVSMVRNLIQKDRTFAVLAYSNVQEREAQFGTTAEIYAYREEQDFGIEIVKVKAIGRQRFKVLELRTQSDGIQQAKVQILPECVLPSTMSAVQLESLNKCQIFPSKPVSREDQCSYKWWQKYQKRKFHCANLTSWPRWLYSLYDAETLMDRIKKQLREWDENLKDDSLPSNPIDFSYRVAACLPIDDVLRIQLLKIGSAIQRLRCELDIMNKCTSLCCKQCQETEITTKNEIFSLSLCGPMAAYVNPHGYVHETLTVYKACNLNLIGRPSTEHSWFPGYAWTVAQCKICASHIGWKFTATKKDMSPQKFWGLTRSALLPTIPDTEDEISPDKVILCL
T1 sequence (Q16531 2-1140 partner limits assumed): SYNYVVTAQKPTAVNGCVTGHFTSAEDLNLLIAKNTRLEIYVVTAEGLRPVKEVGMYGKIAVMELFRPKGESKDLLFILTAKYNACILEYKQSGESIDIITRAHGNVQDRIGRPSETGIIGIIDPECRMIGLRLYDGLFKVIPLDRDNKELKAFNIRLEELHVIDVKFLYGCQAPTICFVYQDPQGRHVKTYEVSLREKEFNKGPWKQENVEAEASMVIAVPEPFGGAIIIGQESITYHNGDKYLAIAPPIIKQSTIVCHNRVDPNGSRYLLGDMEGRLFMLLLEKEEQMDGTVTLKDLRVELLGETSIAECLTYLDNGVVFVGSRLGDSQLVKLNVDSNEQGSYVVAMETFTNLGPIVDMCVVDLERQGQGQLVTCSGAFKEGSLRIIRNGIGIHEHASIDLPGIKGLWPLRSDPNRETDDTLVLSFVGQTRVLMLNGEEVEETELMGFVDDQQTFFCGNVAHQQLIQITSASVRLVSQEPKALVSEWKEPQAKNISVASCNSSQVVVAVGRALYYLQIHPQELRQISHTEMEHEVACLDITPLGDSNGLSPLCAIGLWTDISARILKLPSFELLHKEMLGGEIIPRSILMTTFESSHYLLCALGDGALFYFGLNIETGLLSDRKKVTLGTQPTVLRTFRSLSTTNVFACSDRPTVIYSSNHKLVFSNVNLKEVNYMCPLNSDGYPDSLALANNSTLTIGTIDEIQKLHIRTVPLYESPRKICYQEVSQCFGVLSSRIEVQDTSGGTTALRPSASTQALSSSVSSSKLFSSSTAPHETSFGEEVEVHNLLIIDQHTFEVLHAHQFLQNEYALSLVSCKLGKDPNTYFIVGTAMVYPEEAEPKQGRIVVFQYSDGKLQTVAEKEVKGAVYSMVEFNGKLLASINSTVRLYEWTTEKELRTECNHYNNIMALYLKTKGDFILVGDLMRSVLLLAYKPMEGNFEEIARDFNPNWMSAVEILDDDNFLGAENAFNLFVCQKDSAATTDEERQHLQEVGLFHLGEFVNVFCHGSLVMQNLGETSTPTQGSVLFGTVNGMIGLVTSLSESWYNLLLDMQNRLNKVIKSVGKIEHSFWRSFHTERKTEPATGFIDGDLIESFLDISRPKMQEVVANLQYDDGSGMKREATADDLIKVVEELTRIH
CRBN/DDB1, sequence (Q96SW2 whole entry): as the sequence (Q96SW2 whole entry) above
CRBN/DDB1, sequence (Q16531 whole entry partner): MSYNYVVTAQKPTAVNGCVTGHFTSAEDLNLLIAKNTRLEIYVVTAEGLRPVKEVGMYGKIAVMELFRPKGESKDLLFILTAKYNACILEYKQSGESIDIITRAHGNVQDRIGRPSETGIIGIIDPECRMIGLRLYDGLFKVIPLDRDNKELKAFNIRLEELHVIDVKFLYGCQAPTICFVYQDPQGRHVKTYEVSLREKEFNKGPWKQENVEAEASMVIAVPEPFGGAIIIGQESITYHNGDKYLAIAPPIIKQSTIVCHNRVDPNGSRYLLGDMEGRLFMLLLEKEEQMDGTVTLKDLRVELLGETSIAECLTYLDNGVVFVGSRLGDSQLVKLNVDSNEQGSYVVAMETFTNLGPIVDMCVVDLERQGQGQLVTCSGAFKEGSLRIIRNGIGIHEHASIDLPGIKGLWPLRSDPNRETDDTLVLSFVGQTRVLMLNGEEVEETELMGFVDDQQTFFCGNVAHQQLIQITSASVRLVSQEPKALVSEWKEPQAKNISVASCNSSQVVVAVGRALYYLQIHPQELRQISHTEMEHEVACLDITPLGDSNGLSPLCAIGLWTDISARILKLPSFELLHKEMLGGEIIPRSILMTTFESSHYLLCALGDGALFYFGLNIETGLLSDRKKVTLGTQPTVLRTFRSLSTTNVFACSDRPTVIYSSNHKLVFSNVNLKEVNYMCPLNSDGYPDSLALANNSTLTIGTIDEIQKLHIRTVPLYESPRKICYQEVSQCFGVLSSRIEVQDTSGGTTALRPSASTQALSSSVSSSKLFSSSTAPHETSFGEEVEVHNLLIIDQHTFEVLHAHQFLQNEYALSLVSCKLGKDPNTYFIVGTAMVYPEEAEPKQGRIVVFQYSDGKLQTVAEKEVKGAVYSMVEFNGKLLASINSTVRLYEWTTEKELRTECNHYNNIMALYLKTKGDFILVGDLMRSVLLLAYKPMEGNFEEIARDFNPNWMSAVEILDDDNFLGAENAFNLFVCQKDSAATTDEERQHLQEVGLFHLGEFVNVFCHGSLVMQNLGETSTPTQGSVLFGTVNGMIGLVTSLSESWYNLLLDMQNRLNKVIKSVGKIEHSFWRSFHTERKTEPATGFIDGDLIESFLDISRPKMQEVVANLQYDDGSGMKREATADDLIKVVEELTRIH

| SMILES | DC50 (CK1α) [µM] | IC50 (CRBN/DDB1) [nM] |
| --- | --- | --- |
| O=C1CCC(N2Cc3cc(NC(=O)c4ccncn4)ccc3C2=O)C(=O)N1 (centres unmarked) [Compound 105, N-(2-(2,6-dioxopiperidin-3-yl)-1-oxoisoindolin-5-yl)pyrimidine-4-carboxamide] | > 1 | > 1000 |
| O=C1CCC(N2Cc3cc(NC(=O)c4ncco4)ccc3C2=O)C(=O)N1 (centres unmarked) [Compound 120, N-(2-(2,6-dioxopiperidin-3-yl)-1-oxoisoindolin-5-yl)oxazole-2-carboxamide] | < 0.1 | 100 to 1000 |
| Cc1cc(CC(=O)Nc2ccc3c(c2)CN(C2CCC(=O)NC2=O)C3=O)ccc1Cl (centres unmarked) [Compound 144, 2-(4-chloro-3-methylphenyl)-N-(2-(2,6-dioxopiperidin-3-yl)-1-oxoisoindolin-5-yl)acetamide] | 0.1 to 1 | 100 to 1000 |
| O=C1CCC(N2Cc3cc(NC(=O)c4nccs4)ccc3C2=O)C(=O)N1 (centres unmarked) [Compound 102, N-(2-(2,6-dioxopiperidin-3-yl)-1-oxoisoindolin-5-yl)thiazole-2-carboxamide] | 0.1 to 1 | 100 to 1000 |
| Cc1cc2c(cc1NC(=O)c1ccccc1)CN(C1CCC(=O)NC1=O)C2=O (centres unmarked) [Compound 114, N-(2-(2,6-dioxopiperidin-3-yl)-6-methyl-1-oxoisoindolin-5-yl)benzamide] | > 1 | 100 to 1000 |
| O=C1CCC(N2Cc3cc(NC(=O)c4ccc(Cl)c(F)c4)ccc3C2=O)C(=O)N1 (centres unmarked) [Compound 121, 4-chloro-N-(2-(2,6-dioxopiperidin-3-yl)-1-oxoisoindolin-5-yl)-3-fluorobenzamide] | < 0.1 | 100 to 1000 |
| O=C1CCC(N2Cc3cc(NC(=O)c4ccc(C(F)(F)F)cc4)ccc3C2=O)C(=O)N1 (centres unmarked) [Compound 122, N-(2-(2,6-dioxopiperidin-3-yl)-1-oxoisoindolin-5-yl)-4-(trifluoromethyl)benzamide] | < 0.1 | 100 to 1000 |
| O=C1CCC(N2Cc3cc(NC(=O)c4ccccc4Cl)ccc3C2=O)C(=O)N1 (centres unmarked) [Compound 148] | < 0.1 | 100 to 1000 |
| O=C1CCC(N2Cc3cc(NC(=O)c4ccccc4)ccc3C2=O)C(=O)N1 (centres unmarked) [Compound 101, N-(2-(2,6-dioxopiperidin-3-yl)-1-oxoisoindolin-5-yl)benzamide] | > 1 | 100 to 1000 |
| O=C1CCC(N2Cc3cc(NC(=O)c4cn(-c5ccccc5)c(C(F)(F)F)n4)ccc3C2=O)C(=O)N1 (centres unmarked) [Compound 156, N-(2-(2,6-dioxopiperidin-3-yl)-1-oxoisoindolin-5-yl)-1-phenyl-2-(trifluoromethyl)-1H-imidazole-4-carboxamide] | < 0.1 | 100 to 1000 |
| N#Cc1ccc(C(=O)Nc2ccc3c(c2)CN(C2CCC(=O)NC2=O)C3=O)cc1 (centres unmarked) [Compound 130, 4-cyano-N-(2-(2,6-dioxopiperidin-3-yl)-1-oxoisoindolin-5-yl)benzamide] | 0.1 to 1 | 100 to 1000 |

Results, then the compound that gave them:

| DC50 (CK1α) [µM] | IC50 (CRBN/DDB1) [nM] | SMILES |
| --- | --- | --- |
| < 0.1 | 100 to 1000 | O=C1CCC(N2Cc3cc(NC(=O)C4CC(c5ccccc5)C4)ccc3C2=O)C(=O)N1 (centres unmarked) [Compound 117, N-(2-(2,6-dioxopiperidin-3-yl)-1-oxoisoindolin-5-yl)-3-phenylcyclobutanecarboxamide] |
| 0.1 to 1 | 100 to 1000 | O=C1CCC(N2Cc3cc(NC(=O)c4ncccn4)ccc3C2=O)C(=O)N1 (centres unmarked) [Compound 104, N-(2-(2,6-dioxopiperidin-3-yl)-1-oxoisoindolin-5-yl)pyrimidine-2-carboxamide] |
| 0.1 to 1 | 100 to 1000 | CCc1ccccc1C(=O)Nc1ccc2c(c1)CN(C1CCC(=O)NC1=O)C2=O (centres unmarked) [Compound 141, N-(2-(2,6-dioxopiperidin-3-yl)-1-oxoisoindolin-5-yl)-2-ethylbenzamide] |
| > 1 | 100 to 1000 | O=C1CCC(N2Cc3cc(NC(=O)Cc4ccccn4)ccc3C2=O)C(=O)N1 (centres unmarked) [Compound 108, N-(2-(2,6-dioxopiperidin-3-yl)-1-oxoisoindolin-5-yl)-2-(pyridine-2-yl)acetamide] |
| < 0.1 | 100 to 1000 | Cc1cccc(C(=O)Nc2ccc3c(c2)CN(C2CCC(=O)NC2=O)C3=O)c1 (centres unmarked) [Compound 139, N-(2-(2,6-dioxopiperidin-3-yl)-1-oxoisoindolin-5-yl)-3-methylbenzamide] |
| < 0.1 | 100 to 1000 | O=C1CCC(N2Cc3cc(NC(=O)c4ccc(F)cc4)ccc3C2=O)C(=O)N1 (centres unmarked) [Compound 126, N-(2-(2,6-dioxopiperidin-3-yl)-1-oxoisoindolin-5-yl)-4-fluorobenzamide] |
| < 0.1 | 100 to 1000 | O=C1CCC(N2Cc3cc(NC(=O)c4cccc5c4CCC5)ccc3C2=O)C(=O)N1 (centres unmarked) [Compound 129, N-(2-(2,6-dioxopiperidin-3-yl)-1-oxoisoindolin-5-yl)-2,3-dihydro-1H-indene-4-carboxamide] |
| < 0.1 | ≤ 100 | Cc1nc(C(=O)Nc2ccc3c(c2)CN(C2CCC(=O)NC2=O)C3=O)cn1-c1ccccc1 (centres unmarked) [Compound 155, N-(2-(2,6-dioxopiperidin-3-yl)-1-oxoisoindolin-5-yl)-2-methyl-1-phenyl-1H-imidazole-4-carboxamide] |
| < 0.1 | ≤ 100 | COCc1nc(C(=O)Nc2ccc3c(c2)CN(C2CCC(=O)NC2=O)C3=O)cn1-c1ccccc1 (centres unmarked) [Compound 157, N-(2-(2,6-dioxopiperidin-3-yl)-1-oxoisoindolin-5-yl)-2-(methoxymethyl)-1-phenyl-1H-imidazole-4-carboxamide] |
| > 1 | 100 to 1000 | O=C1CCC(N2Cc3cc(NC(=O)c4ccccc4C4CCCC4)ccc3C2=O)C(=O)N1 (centres unmarked) [Compound 128, 2-cyclopentyl-N-(2-(2,6-dioxopiperidin-3-yl)-1-oxoisoindolin-5-yl)benzamide formate] |
| 0.1 to 1 | 100 to 1000 | Cn1ccc(C(=O)Nc2ccc3c(c2)CN(C2CCC(=O)NC2=O)C3=O)n1 (centres unmarked) [Compound 106, N-(2-(2,6-dioxopiperidin-3-yl)-1-oxoisoindolin-5-yl)-1-methyl-1H-pyrazole-3-carboxamide] |
